In US20240010684A1, “MASP INHIBITORY COMPOUNDS AND USES THEREOF” (BAYER AKTIENGESELLSCHAFT, priority 2020, published 2024):
Where a SMILES comes first, the peptide text is derived from it. Bridges are numbered along the chain shown (N, C = ends). [ ]: non-standard residue; d: D form. Oic = O=C(O)[C@@H]1C[C@@H]2CCCC[C@@H]2N1; tBuAla = CC(C)(C)C[C@H](N)C(=O)O; Pen = CC(C)(S)[C@H](N)C(=O)O; Orn = NCCC[C@H](N)C(=O)O; Dap = NC[C@H](N)C(=O)O; PEG2 = NCCOCCOCCC(=O)O; Ahx = NCCCCCC(=O)O; Sar = CNCC(=O)O

Experiments:
human MASP1 = human MASP1 (Homo sapiens (Human), UniProt P48740); assay: Biochemical human MASP1 assay (FRET substrate); conditions: Average IC50; recombinant human MASP1; read-out: human MASP1 IC50
Description: A truncated cDNA sequence of human MASP1 encoding the fragment corresponding to the amino acids 297-699 with a C-terminal His Tag and N-terminal Ig-kappa secretion signal (SEQ ID No: 2) was subcloned into the mammalian expression vector pcDNA3.1 (Invitrogen).
The MASP1 or MASP2 expression vectors were transfected into the HEK293 (ATCC No. CRL-1573) cell line using Lipofectamine LTX® Reagent (Thermo-Fischer), as described by the manufacturer. The mature form of the recombinant human MASP1 and MASP2 proteases were secreted into the culture medium. The MASP1 and MASP2 proteins were purified from the conditioned media by affinity chromatography on Ni-NTA Superflow resin (Qiagen) as described by the manufacturer.
2.2 Biochemical Human MASP1 Assay
Recombinant human MASP1 enzyme produced in the HEK 293 cells was diluted in the reaction buffer (50 mM HEPES pH 8,0; 100 mM NaCl; 0,01% CHAPS; 0.5 mM Gluthathione) to the concentration of 20 nM and 25 μl was transferred into each single well of 384-well white microtiter plate (Greiner Bio One 781075). 1 μl of the inhibitor compound solution (dissolved in DMSO, at the corresponding concentration) or pure DMSO as a control was added to the same wells. The enzymatic reaction was initiated by addition of 25 μl of 20 μM solution of the FRET substrate ABZ-[…]-Lys (Dnp)-NH2; (ABZ-2-aminobenzoyl; DNP 2,4-dinitrophenyl; custom synthesis by Jerini Peptide Technologies, Berlin) in the reaction buffer. The microtiter plate was incubated for 60-120 min at the temperature of 32 C. The increase of fluorescence intensity was measured in appropriate fluorescence plate reader (e.g. TECAN Ultra) using excitation wavelength of 320 nm and emission wavelength of 420 nm. IC50 values were calculated from percentage of inhibition of human MASP1 activity as a function of test compound concentration.

human MASP2 = human MASP2 (Homo sapiens (Human), UniProt O00187); assay: Biochemical human MASP2 assay (FRET substrate); conditions: Average IC50; recombinant human MASP2; read-out: human MASP2 IC50
Description: The MASP1 or MASP2 expression vectors were transfected into the HEK293 (ATCC No. CRL-1573) cell line using Lipofectamine LTX® Reagent (Thermo-Fischer), as described by the manufacturer. The mature form of the recombinant human MASP1 and M[…] were secreted into the culture medium. The MASP1 and M[…] were purified from the conditioned media by affinity chromatography on Ni-NTA Superflow resin (Qiagen) as described by the manufacturer. 2.3 Biochemical Human MASP2 Assay […] The enzymatic reaction was initiated by addition of 25 μl of 60 μM solution of the FRET substrate DABCYL-[…]; […] The microtiter plate was incubated for 60-120 min at the temperature of 32 C. The increase of fluorescence intensity was measured in appropriate fluorescence plate reader (e.g. TECAN Ultra) using excitation wavelength of 340 nm and emission wavelength of 490 nm. IC50 values were calculated from percentage of inhibition of human MASP2 activity as a function of test compound concentration.

Chain of human MASP1 (P48740 other isoform, or with tags, fused parts or gaps): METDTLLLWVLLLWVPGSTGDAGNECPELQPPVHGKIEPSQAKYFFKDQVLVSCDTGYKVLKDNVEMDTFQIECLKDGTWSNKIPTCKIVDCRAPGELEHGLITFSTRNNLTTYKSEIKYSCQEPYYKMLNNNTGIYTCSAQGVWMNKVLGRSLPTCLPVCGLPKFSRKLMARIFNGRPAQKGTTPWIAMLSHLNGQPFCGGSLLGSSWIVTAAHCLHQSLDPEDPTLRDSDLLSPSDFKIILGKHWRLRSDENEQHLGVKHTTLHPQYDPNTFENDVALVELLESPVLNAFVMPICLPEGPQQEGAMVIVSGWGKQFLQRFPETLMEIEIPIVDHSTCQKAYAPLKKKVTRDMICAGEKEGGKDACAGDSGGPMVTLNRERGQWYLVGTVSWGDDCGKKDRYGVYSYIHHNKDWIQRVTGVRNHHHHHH
Chain of human MASP2 (O00187 other isoform, or with tags, fused parts or gaps): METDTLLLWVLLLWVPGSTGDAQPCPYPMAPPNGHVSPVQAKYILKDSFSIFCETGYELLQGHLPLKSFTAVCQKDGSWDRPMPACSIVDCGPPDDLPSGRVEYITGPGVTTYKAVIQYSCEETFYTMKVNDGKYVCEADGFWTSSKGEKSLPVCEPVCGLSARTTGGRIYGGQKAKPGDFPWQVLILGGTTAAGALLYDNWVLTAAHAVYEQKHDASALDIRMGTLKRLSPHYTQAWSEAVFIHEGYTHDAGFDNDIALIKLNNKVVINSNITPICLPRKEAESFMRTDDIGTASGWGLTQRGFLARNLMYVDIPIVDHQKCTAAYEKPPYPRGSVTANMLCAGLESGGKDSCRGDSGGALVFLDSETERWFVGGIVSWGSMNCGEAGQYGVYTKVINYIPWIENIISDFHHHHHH

Structure (SMILES)	IC50 (human MASP1)	IC50 (human MASP2)
CC[C@H](C)[C@@H]1NC(=O)[C@H](C)NC(=O)CN(C)C(=O)CCCCCNC(=O)CC[C@@H](C(N)=O)NC(=O)[C@@H]2CCCN2C(=O)[C@H]([C@@H](C)CC)NC(=O)[C@H]2NC(=O)[C@H]([C@@H](C)CC)NC(=O)[C@@H]3C[C@@H]4CCCC[C@@H]4N3C(=O)[C@@H]3CCCN3C(=O)[C@H](CC(C)C)NC(=O)[C@H](CO)NC(=O)[C@H](CCCNC(=N)N)NC(=O)[C@H](CO)NC(=O)[C@H](CSSC2(C)C)NC1=O [Example 77] ([Ahx][Sar]AICSRSLP[Oic]I[Pen]IPE-NH2; disulfide 5-13; lactam N-16)	11 nM	210 nM
CC[C@H](C)[C@@H]1NC(=O)[C@@H](C)NC(=O)CCCCCNC(=O)CC[C@@H](C(N)=O)NC(=O)[C@@H]2CCCN2C(=O)[C@H]([C@@H](C)CC)NC(=O)[C@H]2NC(=O)[C@H]([C@@H](C)CC)NC(=O)[C@@H]3C[C@@H]4CCCC[C@@H]4N3C(=O)[C@@H]3CCCN3C(=O)[C@H](CC(C)C)NC(=O)[C@H](CO)NC(=O)[C@H](CCCNC(=N)N)NC(=O)[C@H](CO)NC(=O)[C@H](CSSC2(C)C)NC1=O [Example 79] ([Ahx][dA]ICSRSLP[Oic]I[Pen]IPE-NH2; disulfide 4-12; lactam N-15)	22 nM	45 nM
CC[C@H](C)[C@@H]1NC(=O)CNC(=O)CNC(=O)[C@H](C)NC(=O)[C@H](CC(=O)O)NC(=O)[C@@H]2CCCN2C(=O)[C@H]([C@@H](C)CC)NC(=O)[C@@H]2CSSC[C@H](NC1=O)C(=O)N[C@@H](CO)C(=O)N[C@@H](CCCNC(=N)N)C(=O)N[C@@H](CO)C(=O)N[C@@H](CC(C)C)C(=O)N1CCC[C@H]1C(=O)N1CCC[C@H]1C(=O)N[C@@H]([C@@H](C)CC)C(=O)N2 [Example 18] (cyclo(AGGICSRSLPPICIPD); disulfide 5-13)	50 nM	15 nM
CC[C@H](C)[C@@H]1NC(=O)CNC(=O)CCCCCNC(=O)[C@@H](CC(=O)O)NC(=O)[C@@H]2CCCN2C(=O)[C@H]([C@@H](C)CC)NC(=O)[C@@H]2CSSC[C@H](NC1=O)C(=O)N[C@@H](CO)C(=O)N[C@@H](CCCNC(=N)N)C(=O)N[C@@H](CO)C(=O)N[C@@H](CC(C)C)C(=O)N1CCC[C@H]1C(=O)N1CCC[C@H]1C(=O)N[C@@H]([C@@H](C)CC)C(=O)N2 [Example 16, [(6S,9S,12S,15S,18R,21S,34R,36aS,42S,45R,48S,50aS,55aS)-21,42,48-tri[(2S)-butan-2-yl]-12-(3-carbamimidamidopropyl)-9,15-bis(hydroxymethyl)-6-(2-methylpropyl)-5,8,11,14,17,20,23,26,33,36,41,44,47,50,55-pentadecaoxotetrapentacontahydro-1H-18,45-(methanodithiomethano)tripyrrolo[2,1-f:2′,1′-r:2″,1″-u][1,4,7,10,13,16,19,22,25,28,31,34,37,40,43]pentadecaazacyclononatetracontin-34-yl]acetic acid] (cyclo([Ahx]GICSRSLPPICIP[dD]); disulfide 4-12)	150 nM	370 nM
CC[C@H](C)[C@@H]1NC(=O)[C@H](C)NC(=O)CNC(=O)CCCCCNC(=O)CC[C@@H](C(N)=O)NC(=O)[C@@H]2CCCN2C(=O)[C@H]([C@@H](C)CC)NC(=O)[C@H]2NC(=O)[C@H]([C@@H](C)CC)NC(=O)[C@@H]3C[C@@H]4CCCC[C@@H]4N3C(=O)[C@@H]3CCCN3C(=O)[C@H](CC(C)C)NC(=O)[C@H](CO)NC(=O)[C@H](CCCNC(=N)N)NC(=O)[C@H](CO)NC(=O)[C@H](CSSC2(C)C)NC1=O [Example 82] ([Ahx]GAICSRSLP[Oic]I[Pen]IPE-NH2; disulfide 5-13; lactam N-16)	69 nM	700 nM
CC[C@H](C)[C@@H]1NC(=O)[C@@H](N)CCCNC(=O)[C@@H]2CCCN2C(=O)[C@H]([C@@H](C)CC)NC(=O)[C@H]2NC(=O)[C@H]([C@@H](C)CC)NC(=O)[C@@H]3CCCN3C(=O)[C@@H]3CCCN3C(=O)[C@H](CC(C)(C)C)NC(=O)[C@H](CO)NC(=O)[C@H](CCCNC(=N)N)NC(=O)[C@H](CO)NC(=O)[C@H](CSSC2(C)C)NC1=O [Example 71, N-{3-[(6S,9S,12S,15S,18R,21S,24S,29aS,35S,38R,41S,43aS,48aS)-24-amino-21,35,41-tri[(2S)-butan-2-yl]-6-(2,2-dimethylpropyl)-9,15-bis(hydroxymethyl)-49,49-dimethyl-5,8,11,14,17,20,23,29,34,37,40,43,48-tridecaoxohexatetracontahydro-1H,5H-18,38-(methanodithiomethano)tripyrrolo[2,1-c:2′,1′-o:2″,1″-r][1,4,7,10,13,16,19,22,25,28,31,34,37]tridecaazacyclodotetracontin-12-yl]propyl}guanidine] (H-[Orn]ICSRS[tBuAla]PPI[Pen]IP; lactam 1-C; disulfide 3-11)	21 nM	24 nM
CC[C@H](C)[C@@H]1NC(=O)[C@H](C)NC(=O)CCCCCNC(=O)[C@H](CC(=O)O)NC(=O)[C@@H]2CCCN2C(=O)[C@H]([C@@H](C)CC)NC(=O)[C@H]2NC(=O)[C@H]([C@@H](C)CC)NC(=O)[C@@H]3CCCN3C(=O)[C@@H]3CCCN3C(=O)[C@H](CC(C)(C)C)NC(=O)[C@H](CO)NC(=O)[C@H](CCCNC(=N)N)NC(=O)[C@H](CO)NC(=O)[C@H](CSSC2(C)C)NC1=O [Example 27] (cyclo(AICSRS[tBuAla]PPI[Pen]IPD[Ahx]); disulfide 3-11)	9.1 nM	37.5 nM
CC[C@H](C)[C@@H]1NC(=O)[C@H](C)NC(=O)CCOCCOCCNC(=O)[C@H](CC(=O)O)NC(=O)[C@@H]2CCCN2C(=O)[C@H]([C@@H](C)CC)NC(=O)[C@H]2NC(=O)[C@H]([C@@H](C)CC)NC(=O)[C@@H]3CCCN3C(=O)[C@@H]3CCCN3C(=O)[C@H](CC(C)(C)C)NC(=O)[C@H](CO)NC(=O)[C@H](CCCNC(=N)N)NC(=O)[C@H](CO)NC(=O)[C@H](CSSC2(C)C)NC1=O [Example 34] (cyclo(AICSRS[tBuAla]PPI[Pen]IPD[PEG2]); disulfide 3-11)	11 nM	98 nM
CC[C@H](C)[C@@H]1NC(=O)[C@H](C)NC(=O)CCCCCNC(=O)[C@H](CC(=O)O)NC(=O)[C@@H]2CCCN2C(=O)[C@H]([C@@H](C)CC)NC(=O)[C@@H]2CSSC[C@H](NC1=O)C(=O)N[C@@H](CO)C(=O)N[C@@H](CCCNC(=N)N)C(=O)N[C@@H](CO)C(=O)N[C@@H](CC(C)C)C(=O)N1CCC[C@H]1C(=O)N1CCC[C@H]1C(=O)N[C@@H]([C@@H](C)CC)C(=O)N2 [Example 45] (cyclo(AICSRSLPPICIPD[Ahx]); disulfide 3-11)	92 nM	74 nM
CC[C@H](C)[C@@H]1NC(=O)CNC(=O)CNC(=O)[C@@H](N)CNC(=O)[C@H](CC(=O)O)NC(=O)[C@@H]2CCCN2C(=O)[C@H]([C@@H](C)CC)NC(=O)[C@@H]2CSSC[C@H](NC1=O)C(=O)N[C@@H](CO)C(=O)N[C@@H](CCCNC(=N)N)C(=O)N[C@@H](CO)C(=O)N[C@@H](CC(C)C)C(=O)N1CCC[C@H]1C(=O)N1CCC[C@H]1C(=O)N[C@@H]([C@@H](C)CC)C(=O)N2 [Example 20] (H-[Dap]GGICSRSLPPICIPD; lactam 1-C; disulfide 5-13)	55 nM	110 nM
CC[C@H](C)[C@@H]1NC(=O)CNC(=O)CCCCCNC(=O)C[C@@H](C(N)=O)NC(=O)[C@@H]2CCCN2C(=O)[C@H]([C@@H](C)CC)NC(=O)[C@H]2NC(=O)[C@H]([C@@H](C)CC)NC(=O)[C@@H]3CCCN3C(=O)[C@@H]3CCCN3C(=O)[C@H](CC(C)(C)C)NC(=O)[C@H](CO)NC(=O)[C@H](CCCNC(=N)N)NC(=O)[C@H](CO)NC(=O)[C@H](CSSC2(C)C)NC1=O [Example 48] ([Ahx]GICSRS[tBuAla]PPI[Pen]IPD-NH2; disulfide 4-12; lactam N-15)	10 nM	70 nM
CC[C@H](C)[C@@H]1NC(=O)CNC(=O)[C@@H](N)CCC(=O)NCCCC[C@@H](C(N)=O)NC(=O)[C@@H]2CCCN2C(=O)[C@H]([C@@H](C)CC)NC(=O)[C@H]2NC(=O)[C@H]([C@@H](C)CC)NC(=O)[C@@H]3C[C@@H]4CCCC[C@@H]4N3C(=O)[C@@H]3CCCN3C(=O)[C@H](CC(C)C)NC(=O)[C@H](CO)NC(=O)[C@H](CCCNC(=N)N)NC(=O)[C@H](CO)NC(=O)[C@H](CSSC2(C)C)NC1=O [Example 90] (H-EGICSRSLP[Oic]I[Pen]IPK-NH2; lactam 1-15; disulfide 4-12)	9.8 nM	110 nM
